Consider one molecule from PMC5007466, “VCP recruitment to mitochondria causes mitophagy impairment and neurodegeneration in models of Huntington's disease” (Nature Communications, 2016).

The target in data set [1] is T1, full-length mouse VCP/p97 (Mus musculus, UniProt Q01853).
T1 construct: The full-length mouse VCP/p97 (residues 2–806) was expressed with an N-terminal 6xHis-tag; 6xHis (N); host or cells: Escherichia coli Rosetta (DE3)
The data set can be described thus: Isothermal titration calorimetry (ITC). It is filed as binding. Conditions: 15 °C. Here is the method:
The full-length mouse VCP/p97 (residues 2–806) was expressed with an N-terminal 6xHis-tag (Addgene: plasmid # 12373) in the Rosetta (DE3) strain of Escherichia coli (Novagen) as previously described. Briefly, the cells were grown in LB media supplemented with Kanamycin and induced at OD∼1.0 for 16 h at 18 °C. Cells were homogenized in Buffer A (500 mM KCl, 25 mM Hepes pH 8.0, and 2 mM β-mercaptoethanol) in the presence of EDTA-free Complete Protease Inhibitor (Roche) and 2 mM PMSF. The lysate was cleared by centrifugation at 45,000 g for 1 h at 4 °C. Supernatant was incubated with 2 ml of Ni-NTA agarose resin (Qiagen) for 2 h at 4 °C. The resin was washed with Buffer A containing 50 mM imidazole and eluted with Buffer A containing 400 mM imidazole. VCP protein was further purified by passing through Superdex 200 increase 10/300 GL (GE Healthcare) size exclusion column equilibrated with Buffer B (250 mM KCL, 25 mM Hepes pH 8.0, 2 mM β-mercaptoethanol and 1 mM MgCl2). The fractions containing the pure sample, as determined by SDS–PAGE analysis, were pooled and concentrated to a final concentration of ∼3–5 mg ml^−1.
Binding of HV-3 peptide to VCP was measured by isothermal titration calorimetry on a MicroCal ITC200 (GE Healthcare). Before the calorimetric titrations, the protein was exchanged into Buffer C (100 mM NaCl, 10 mM Hepes, pH 8.0) on a PD-10 column (Amersham Biosciences) and concentrated to ∼5–6 mg ml^−1. The final concentration of protein in the cell (∼60–70 μM) was determined on a NanoDrop Spectrophotometer (Thermo Scientific NanoDrop 2000) using a molecular weight of 89.32 KDa and a molar extinction coefficient of […]. The HV-3 peptide was dissolved in Buffer C to a final concentration of 2 mM and loaded into the syringe. The measurements were made at a constant cell temperature of 15 °C and repeated at least three times. Thirty successive injections of 1.2 μl each were titrated into the cell with constant stirring at 1,000 r.p.m. An equilibration time of 150 s was set between consecutive injections. The binding isotherms were analysed with the MicroCal Origin software. For measurements of heat of dilution, the protein sample in the cell was replaced by Buffer C and all other conditions were kept identical.
A general note: Isothermal titration calorimetry measures the heat released or taken up as one component is titrated into another.

For the next data set, the system named is R6/2 mice. The experiment in a line: DARPP-32 immunostaining of striatum. Conditions: R6/2, 3 mg kg^−1 per day, n=6. It counts as in vivo, mouse. Here is the method:
Male hemizygous R6/2 mice (Tg) and their age-matched wt littermates (5-week-old) were implanted with a 28-day osmotic pump (Alzet, Cupertino CA) containing TAT control peptide or HV-3 peptide, which delivered peptides to the mice at a rate of 3 mg kg^−1 per day. The first pump was implanted subcutaneously in the back of 5-week-old mice between the shoulders and replaced once, after 4 weeks.
Mice were deeply anaesthetized and transcardially perfused with 4% paraformaldehyde in PBS. Brains were processed for paraffin embedment. Brain sections (5 μm, coronal) were used for immunohistochemical localization of DARPP-32 (1:500, Epitomics) using the IHC Select HRP/DAB kit (Millipore). Quantitation of DARPP-32 immunostaining was conducted using NIH image J software. The same image exposure times and threshold settings were used for sections from all treatment groups.

In another data set the test system is C57Black mice. The experiment in a line: Blood biochemistry of naive mice. The following applies: 3 mg/kg/day, 4 weeks. It is filed as in vivo, mouse. Here is the method:
Supplementary Figure 8 : Toxicity analysis of HV -3in naïve mice .
We performed a toxicity analysis of HV-3 in mice. Six -week-old C57Black mice were treated with saline or peptide HV-3 at 3mg/kg/day by Alzet pump implantation. After 4- week treatment, the plasma, blood and whole mouse bodies of mice were collected. Examination on blood chemistry (Supplementary Table 1), hematology (Supplementary Table 2) and general necropsy of mice were performed at the Animal Diagnostic Laboratory at Stanford University. The experimenter who conducted the analysis was blind to the treatment groups. Automated hematology was performed on the Sysmex XT-2000iV analyzer system. Blood smears were made for all full CBC samples and reviewed by a medical technologist. Manual differentials were performed as indicated by species and automated analysis. Chemistry analysis was performed on the Siemens Dimension Xpand analyzer. […]
Student’s t test. Four-week sustained treatment with HV-3 by pump implantation had no effects on blood chemistry (Supplementary Table 1), hematology (Supplementary Table 2), and gross necropsy of naïve mice when compared to mice treated with saline. A four-week treatment with HV-3 had […] on immuno-density of CD3, a marker of T-cell for adaptive immune response, in the brains and spleens of naïve mice (a). Treatment with HV-3 had no effects on the size and weight of the spleens (b). […]
Table 1: Effects of 4-w eek treatment w ith HV-3 on blood biochemistry of naïve mice […]
M ean SD M ean SD p-value unit n

T1 sequence (Q01853 2-806): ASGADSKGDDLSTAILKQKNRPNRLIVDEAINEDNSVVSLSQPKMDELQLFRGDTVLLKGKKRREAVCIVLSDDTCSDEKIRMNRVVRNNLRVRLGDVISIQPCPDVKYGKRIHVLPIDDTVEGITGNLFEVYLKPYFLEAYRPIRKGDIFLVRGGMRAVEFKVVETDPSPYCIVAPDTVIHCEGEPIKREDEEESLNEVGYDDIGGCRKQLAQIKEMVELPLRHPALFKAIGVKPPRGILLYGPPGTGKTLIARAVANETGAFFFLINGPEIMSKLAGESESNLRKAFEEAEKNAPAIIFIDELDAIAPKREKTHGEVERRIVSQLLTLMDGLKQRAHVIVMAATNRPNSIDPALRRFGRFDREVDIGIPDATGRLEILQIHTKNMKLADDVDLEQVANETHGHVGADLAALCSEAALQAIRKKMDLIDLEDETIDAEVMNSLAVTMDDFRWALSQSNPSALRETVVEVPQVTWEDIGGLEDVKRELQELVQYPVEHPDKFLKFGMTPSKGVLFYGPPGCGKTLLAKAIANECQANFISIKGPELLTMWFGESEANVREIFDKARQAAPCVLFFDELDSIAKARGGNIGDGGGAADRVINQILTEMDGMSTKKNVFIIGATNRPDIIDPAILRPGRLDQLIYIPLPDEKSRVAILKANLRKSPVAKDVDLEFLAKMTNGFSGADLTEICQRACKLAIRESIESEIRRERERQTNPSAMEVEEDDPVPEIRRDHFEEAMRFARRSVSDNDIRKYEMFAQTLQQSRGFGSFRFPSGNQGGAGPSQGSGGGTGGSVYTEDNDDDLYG

As usually defined, the Kd is the concentration at which binding is half-saturated. Lower therefore signals higher affinity. Molecule `CSCC[C@H](NC(=O)[C@@H](NC(=O)[C@H](CC(C)C)NC(=O)[C@@H](NC(=O)[C@H](Cc1c[nH]cn1)NC(=O)CCCCCNC(=O)[C@H](CCCNC(=N)N)NC(=O)[C@H](CCCNC(=N)N)NC(=O)[C@H](CCCNC(=N)N)NC(=O)[C@H](CCC(N)=O)NC(=O)[C@H](CCCNC(=N)N)NC(=O)[C@H](CCCNC(=N)N)NC(=O)[C@H](CCCCN)NC(=O)[C@H](CCCCN)NC(=O)[C@H](CCCNC(=N)N)NC(=O)CNC(=O)[C@@H](N)Cc1ccc(O)cc1)C(C)C)C(C)C)C(=O)N[C@@H](CS)C(=O)N[C@@H](C)C(=O)N[C@H](C(N)=O)[C@@H](C)O` [HV-3] displayed a Kd in data set [1] (100 mM NaCl, 10 mM Hepes pH 8.0, protein ∼60–70 μM, HV-3 2 mM in syringe, repeated at least three times) of 17.9 ± 7 µM. Moreover, in data set [1] (pH 8.0), the “n (stoichiometry)” value came to 2.02±0.23, the ΔH was -2.145 ± 0.65 kcal/mol and the ΔS is listed as 13.97±3.4 cal mol^−1 deg^−1. The “area of DARPP-32-immunostained cells in striatum” value in the data set with R6/2 mice is “increased by HV-3 treatment”. Further, in the data set with C57Black mice (mean, n = 4/group), the ALT is 71.00 U/L, the AST was 237.25 U/L, the Albumin is recorded as 2.95 g/dL and the “Alkaline Phosphatase” value is on record as 108.00 IU/L. In the data set on C57Black mice (mean, n = 4/group), the “Anion Gap” value amounted to 33.08 mmol/L, the BUN is reported as 27.50 mg/dL, the “Carbon Dioxide” value was 16.45 mmol/L and the Chloride came to 109.00 mmol/L. Further, in the data set on C57Black mice (mean, n = 4/group), the Creatinine was found to be 0.40 mg/dL, the Globulin worked out at 2.20, the Glucose is reported as 312.25 mg/dL and the “Na/K Ratio” value worked out at 20.96. Moreover, in the data set on C57Black mice (mean, n = 4/group), the Phosphorus stood at 8.45 mg/dL, the Potassium is recorded as 7.28 mmol/L, the Sodium was 151.25 mmol/L and the T.Protein was 5.15 g/dL. Also, the “Total Bilirubin” value in the data set with C57Black mice (mean, n = 4/group) is listed as 0.13 mg/dL. Further, the Calcium with C57Black mice (mean, n = 4/group, p 0.04 versus saline) is recorded as 9.78 mg/dL. In the data set on C57Black mice (versus saline), the “blood chemistry (overall)” value was “no effects”.
